Test results from patent US5484801A, “Pharmaceutical composition for inhibiting HIV protease” (Abbott Laboratories, priority 1995, dated 1996).
Entries after “also recorded” stand apart in the source; their conditions may differ.

Legend:
[1] = system: HIV-2 protease; test: Inhibition of HIV-2 protease; assay type: biochemical; settings: statement in words
[2] = target: HIV-1 protease (HIV-1 M:B_HXB2R, UniProt P04585); assay type: biochemical
[3] = Oral bioavailability in dogs, Protocol A (solid dosage forms); assay type: in vivo, beagle dogs; settings: dog, plasma; unformulated solid in a capsule dosage form, 5 mg/kg oral dose in dogs
Method: Each dog received a single solid dosage form corresponding to a 5 mg/kg dose of the drug.

| Structure (SMILES) | inhibition of HIV-2 protease [1] | inhibition of HIV-2 protease ([1]; listed as formula II) | inhibition of HIV-1 protease [2] | bioavailability [3] [%] |
| --- | --- | --- | --- | --- |
| CC(C)c1nc(CN(C)C(=O)NC(C(=O)NC(Cc2ccccc2)CC(O)C(Cc2ccccc2)NC(=O)OCc2cncs2)C(C)C)cs1 (stereo not drawn) [Compound II] | inhibitors | especially effective | especially effective; also recorded: inhibitors | – |
| CC(C)c1nc(CN(C)C(=O)N[C@H](C(=O)N[C@@H](Cc2ccccc2)C[C@H](O)[C@H](Cc2ccccc2)NC(=O)OCc2cncs2)C(C)C)cs1 [Compound III, (2S,3S,5S)-5-(N-(N-((N-Methyl-N-((2-isopropyl-4-thiazolyl)methyl)-amino)carbonyl)valinyl)amino)-2-(N-((5-thiazolyl)methoxycarbonyl)amino)-1,6-diphenyl-3-hydroxyhexane] | inhibitors | – | inhibitors | < 2 |
